Source: patent publication US9156845B2, “4-(substituted amino)-7H-pyrrolo[2,3-d] pyrimidines as LRRK2 inhibitors” (Pfizer Inc., priority 2012, dated 2015)
pIC50: −log10 of the molar value. Read-outs that look alike come from different tables or passages of the source.

Experiments:
[1] = molecular target: STLK5 (Homo sapiens (Human), UniProt Q7RTN6); assay: ActivX kinase probe assay (human PBMC); type: binding; details: read-out: percent inhibition
[2] = molecular target: CaMK1a (Homo sapiens (Human), UniProt Q14012); assay: ActivX kinase probe assay (human PBMC); type: binding; details: read-out: percent inhibition
[3] = test system: PCTAIRE2, PCTAIRE3; assay: ActivX kinase probe assay (human PBMC); type: binding
[4] = molecular target: PIP4K2C (Homo sapiens (Human), UniProt Q8TBX8); assay: ActivX kinase probe assay (human PBMC); type: binding
[5] = molecular target: PIK3C3 (Homo sapiens (Human), UniProt Q8NEB9); assay: ActivX kinase probe assay (human PBMC); type: binding; details: read-out: percent inhibition
[6] = molecular target: AMPKa1 (Homo sapiens (Human), UniProt Q13131); assay: ActivX kinase probe assay (human PBMC); type: binding; details: read-out: percent inhibition
[7] = test system: Wnk1, Wnk2, Wnk4; assay: ActivX kinase probe assay (human PBMC); type: binding
[8] = molecular target: AKT1 (Homo sapiens (Human), UniProt P31749); assay: ActivX kinase probe assay (human PBMC); type: binding; details: read-out: percent inhibition
[9] = molecular target: SMG1 (Homo sapiens (Human), UniProt Q96Q15); assay: ActivX kinase probe assay (human PBMC); type: binding; details: read-out: percent inhibition
[10] = molecular target: MLKL (Homo sapiens (Human), UniProt Q8NB16); assay: ActivX kinase probe assay (human PBMC); type: binding; details: read-out: percent inhibition
[11] = molecular target: MAST3 (Homo sapiens (Human), UniProt O60307); assay: ActivX kinase probe assay (human PBMC); type: binding; details: read-out: percent inhibition
[12] = test system: ZC1/HGK, ZC2/TNIK, ZC3/MINK; assay: ActivX kinase probe assay (human PBMC); type: binding
[13] = molecular target: GST-tagged truncated LRRK2 (Homo sapiens (Human), UniProt Q5S007); assay: LRRK2 Lantha Screen kinase assay; type: biochemical; details: geometric mean of 2-5 determinations unless otherwise indicated (a: >=6 determinations; b: single determination); read-out: LRRK2 WT IC50
[14] = molecular target: JAK1 (Homo sapiens (Human), UniProt P23458); assay: ActivX kinase probe assay (human PBMC); type: binding; details: read-out: percent inhibition
[15] = test system: TAO1, TAO3; assay: ActivX kinase probe assay (human PBMC); type: binding
[16] = test system: AMPKa1, AMPKa2; assay: ActivX kinase probe assay (human PBMC); type: binding
[17] = molecular target: MAP2K3 (Homo sapiens (Human), UniProt P46734); assay: ActivX kinase probe assay (human PBMC); type: binding; details: read-out: percent inhibition
[18] = molecular target: RSKL1 domain1 (Homo sapiens (Human), UniProt Q96S38); assay: ActivX kinase probe assay (human PBMC); type: binding; details: read-out: percent inhibition
[19] = test system: PITSLRE; assay: ActivX kinase probe assay (human PBMC); type: binding
[20] = molecular target: FGR (Homo sapiens (Human), UniProt P09769); assay: ActivX kinase probe assay (human PBMC); type: binding; details: read-out: percent inhibition
[21] = molecular target: CDC2 (Homo sapiens (Human), UniProt P06493); assay: ActivX kinase probe assay (human PBMC); type: binding; details: read-out: percent inhibition
[22] = molecular target: ACK (Homo sapiens (Human), UniProt Q07912); assay: ActivX kinase probe assay (human PBMC); type: binding; details: read-out: percent inhibition
[23] = test system: IKKe, TBK1; assay: ActivX kinase probe assay (human PBMC); type: binding
[24] = molecular target: IKKa (Homo sapiens (Human), UniProt O15111); assay: ActivX kinase probe assay (human PBMC); type: binding; details: read-out: percent inhibition
[25] = molecular target: IKKb (Homo sapiens (Human), UniProt O14920); assay: ActivX kinase probe assay (human PBMC); type: binding; details: read-out: percent inhibition
[26] = molecular target: PIK3CB (Homo sapiens (Human), UniProt P42338); assay: ActivX kinase probe assay (human PBMC); type: binding; details: read-out: percent inhibition
[27] = molecular target: JAK2 domain2 (Homo sapiens (Human), UniProt O60674); assay: ActivX kinase probe assay (human PBMC); type: binding; details: read-out: percent inhibition
[28] = molecular target: MARK3 (Homo sapiens (Human), UniProt P27448); assay: ActivX kinase probe assay (human PBMC); type: binding; details: read-out: percent inhibition
[29] = molecular target: LYN (Homo sapiens (Human), UniProt P07948); assay: ActivX kinase probe assay (human PBMC); type: binding; details: read-out: percent inhibition
[30] = molecular target: HPK1 (Homo sapiens (Human), UniProt Q92918); assay: ActivX kinase probe assay (human PBMC); type: binding; details: read-out: percent inhibition
[31] = molecular target: IKKe (Homo sapiens (Human), UniProt Q14164); assay: ActivX kinase probe assay (human PBMC); type: binding; details: read-out: percent inhibition
[32] = molecular target: PIP5K3 (Homo sapiens (Human), UniProt Q9Y2I7); assay: ActivX kinase probe assay (human PBMC); type: binding; details: read-out: percent inhibition
[33] = molecular target: IRE1 (Homo sapiens (Human), UniProt O75460); assay: ActivX kinase probe assay (human PBMC); type: binding; details: read-out: percent inhibition
[34] = molecular target: IRAK1 (Homo sapiens (Human), UniProt P51617); assay: ActivX kinase probe assay (human PBMC); type: binding; details: read-out: percent inhibition
[35] = read-out: percent inhibition, PIP4K2C (first line of two)
[36] = read-out: percent inhibition, PIP4K2C (second line of two)

Sequence of PIP4K2C (Q8TBX8 whole entry): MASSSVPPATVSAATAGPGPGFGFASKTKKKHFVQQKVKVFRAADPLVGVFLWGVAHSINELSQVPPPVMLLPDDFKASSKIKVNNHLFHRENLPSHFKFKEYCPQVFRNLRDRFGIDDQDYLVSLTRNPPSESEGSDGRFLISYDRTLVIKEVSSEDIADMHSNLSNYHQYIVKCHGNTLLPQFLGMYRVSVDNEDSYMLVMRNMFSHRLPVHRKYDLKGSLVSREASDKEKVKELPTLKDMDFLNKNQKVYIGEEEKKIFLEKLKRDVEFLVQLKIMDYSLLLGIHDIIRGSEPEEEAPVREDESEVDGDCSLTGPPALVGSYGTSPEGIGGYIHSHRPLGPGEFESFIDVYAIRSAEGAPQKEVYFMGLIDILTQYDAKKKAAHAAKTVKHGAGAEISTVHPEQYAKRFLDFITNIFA
Sequence of MAP2K3 (P46734 whole entry, the tested form may be a part): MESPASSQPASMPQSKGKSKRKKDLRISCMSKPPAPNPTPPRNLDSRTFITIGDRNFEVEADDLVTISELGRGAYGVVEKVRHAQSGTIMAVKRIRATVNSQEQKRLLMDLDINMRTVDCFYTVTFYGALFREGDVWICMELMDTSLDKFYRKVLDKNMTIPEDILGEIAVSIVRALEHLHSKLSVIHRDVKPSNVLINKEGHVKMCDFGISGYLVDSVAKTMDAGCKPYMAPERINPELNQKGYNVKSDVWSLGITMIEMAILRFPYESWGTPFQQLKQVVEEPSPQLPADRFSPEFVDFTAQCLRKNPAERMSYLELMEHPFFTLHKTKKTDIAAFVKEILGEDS
Sequence of PIK3CB (P42338 whole entry, the tested form may be a part): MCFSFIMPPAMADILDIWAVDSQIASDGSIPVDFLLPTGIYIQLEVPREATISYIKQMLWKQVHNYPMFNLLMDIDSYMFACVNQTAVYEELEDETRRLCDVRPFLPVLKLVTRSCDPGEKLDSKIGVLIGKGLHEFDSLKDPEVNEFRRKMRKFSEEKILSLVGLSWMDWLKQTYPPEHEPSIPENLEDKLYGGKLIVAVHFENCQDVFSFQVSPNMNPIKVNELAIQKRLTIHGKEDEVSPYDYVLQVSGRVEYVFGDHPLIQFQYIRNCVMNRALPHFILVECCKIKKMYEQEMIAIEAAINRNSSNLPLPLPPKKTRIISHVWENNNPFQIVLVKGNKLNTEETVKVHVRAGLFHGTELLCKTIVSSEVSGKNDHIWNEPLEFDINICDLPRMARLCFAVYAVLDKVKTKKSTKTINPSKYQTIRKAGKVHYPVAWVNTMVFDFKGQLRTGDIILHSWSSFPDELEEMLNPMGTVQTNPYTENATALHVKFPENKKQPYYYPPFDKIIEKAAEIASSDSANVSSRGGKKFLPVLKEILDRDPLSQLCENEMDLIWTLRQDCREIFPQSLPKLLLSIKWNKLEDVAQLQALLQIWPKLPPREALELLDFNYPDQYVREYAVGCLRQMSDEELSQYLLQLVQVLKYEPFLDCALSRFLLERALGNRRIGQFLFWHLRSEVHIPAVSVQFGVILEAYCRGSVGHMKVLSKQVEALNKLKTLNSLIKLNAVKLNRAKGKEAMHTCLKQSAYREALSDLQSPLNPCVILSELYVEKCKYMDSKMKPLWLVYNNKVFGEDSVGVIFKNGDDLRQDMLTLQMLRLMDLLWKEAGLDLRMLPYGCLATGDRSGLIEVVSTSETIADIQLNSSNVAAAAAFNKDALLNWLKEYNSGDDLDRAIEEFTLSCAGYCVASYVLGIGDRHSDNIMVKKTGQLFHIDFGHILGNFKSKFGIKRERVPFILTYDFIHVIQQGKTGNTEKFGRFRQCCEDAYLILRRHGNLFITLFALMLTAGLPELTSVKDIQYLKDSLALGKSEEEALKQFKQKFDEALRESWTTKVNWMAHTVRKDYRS
Sequence of PIK3CB (P27986 whole entry partner, the tested form may be a part): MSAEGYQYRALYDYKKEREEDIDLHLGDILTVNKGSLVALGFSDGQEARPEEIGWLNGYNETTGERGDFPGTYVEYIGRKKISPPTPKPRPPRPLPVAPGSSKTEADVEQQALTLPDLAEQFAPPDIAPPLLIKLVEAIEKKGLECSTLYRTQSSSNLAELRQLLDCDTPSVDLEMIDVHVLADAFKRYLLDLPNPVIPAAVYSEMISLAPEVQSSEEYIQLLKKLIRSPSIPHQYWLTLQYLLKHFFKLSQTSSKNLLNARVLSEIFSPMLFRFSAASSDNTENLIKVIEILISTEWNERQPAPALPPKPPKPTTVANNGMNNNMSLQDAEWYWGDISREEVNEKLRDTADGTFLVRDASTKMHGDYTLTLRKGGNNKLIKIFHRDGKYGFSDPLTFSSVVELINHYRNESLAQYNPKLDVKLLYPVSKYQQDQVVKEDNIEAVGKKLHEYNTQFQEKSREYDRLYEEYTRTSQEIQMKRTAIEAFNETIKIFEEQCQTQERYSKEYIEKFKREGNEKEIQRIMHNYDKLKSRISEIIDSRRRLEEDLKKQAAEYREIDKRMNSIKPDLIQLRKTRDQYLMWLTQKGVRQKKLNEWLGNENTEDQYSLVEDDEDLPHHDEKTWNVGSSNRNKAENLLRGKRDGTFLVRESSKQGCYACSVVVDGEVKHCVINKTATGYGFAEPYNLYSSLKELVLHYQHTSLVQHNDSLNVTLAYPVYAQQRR
Sequence of MAST3 (O60307 whole entry): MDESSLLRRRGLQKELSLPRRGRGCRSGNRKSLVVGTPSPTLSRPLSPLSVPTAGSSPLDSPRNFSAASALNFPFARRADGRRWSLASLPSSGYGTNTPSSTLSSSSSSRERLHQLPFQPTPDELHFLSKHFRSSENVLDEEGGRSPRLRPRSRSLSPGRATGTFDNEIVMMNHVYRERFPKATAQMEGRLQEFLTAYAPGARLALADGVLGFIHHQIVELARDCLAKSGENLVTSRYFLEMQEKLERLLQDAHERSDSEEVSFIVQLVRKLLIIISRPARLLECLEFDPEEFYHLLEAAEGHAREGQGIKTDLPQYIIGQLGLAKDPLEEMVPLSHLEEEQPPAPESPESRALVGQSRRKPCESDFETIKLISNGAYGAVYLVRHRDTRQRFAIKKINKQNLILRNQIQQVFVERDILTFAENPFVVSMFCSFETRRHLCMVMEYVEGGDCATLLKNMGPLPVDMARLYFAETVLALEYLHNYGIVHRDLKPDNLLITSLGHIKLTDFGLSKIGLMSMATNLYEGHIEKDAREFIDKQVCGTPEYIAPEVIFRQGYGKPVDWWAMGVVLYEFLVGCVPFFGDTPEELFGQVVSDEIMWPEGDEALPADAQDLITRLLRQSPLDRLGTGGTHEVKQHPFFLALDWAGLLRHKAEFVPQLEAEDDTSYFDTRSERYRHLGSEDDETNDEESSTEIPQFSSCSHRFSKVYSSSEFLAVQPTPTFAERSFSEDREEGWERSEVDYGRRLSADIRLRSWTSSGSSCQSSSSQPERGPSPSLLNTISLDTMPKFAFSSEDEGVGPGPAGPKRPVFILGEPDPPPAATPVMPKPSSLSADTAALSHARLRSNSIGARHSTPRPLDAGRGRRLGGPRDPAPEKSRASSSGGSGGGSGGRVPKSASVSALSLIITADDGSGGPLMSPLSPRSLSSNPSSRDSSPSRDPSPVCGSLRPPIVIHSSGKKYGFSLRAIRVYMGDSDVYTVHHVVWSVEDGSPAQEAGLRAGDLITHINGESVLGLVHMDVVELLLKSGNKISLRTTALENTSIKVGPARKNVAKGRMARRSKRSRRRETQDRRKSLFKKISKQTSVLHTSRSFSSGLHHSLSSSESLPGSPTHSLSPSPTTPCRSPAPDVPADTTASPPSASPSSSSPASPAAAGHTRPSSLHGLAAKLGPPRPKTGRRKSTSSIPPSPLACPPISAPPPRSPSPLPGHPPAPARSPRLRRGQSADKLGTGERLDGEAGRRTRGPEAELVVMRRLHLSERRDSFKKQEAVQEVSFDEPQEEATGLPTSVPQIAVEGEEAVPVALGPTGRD
Sequence of MLKL (Q8NB16 whole entry): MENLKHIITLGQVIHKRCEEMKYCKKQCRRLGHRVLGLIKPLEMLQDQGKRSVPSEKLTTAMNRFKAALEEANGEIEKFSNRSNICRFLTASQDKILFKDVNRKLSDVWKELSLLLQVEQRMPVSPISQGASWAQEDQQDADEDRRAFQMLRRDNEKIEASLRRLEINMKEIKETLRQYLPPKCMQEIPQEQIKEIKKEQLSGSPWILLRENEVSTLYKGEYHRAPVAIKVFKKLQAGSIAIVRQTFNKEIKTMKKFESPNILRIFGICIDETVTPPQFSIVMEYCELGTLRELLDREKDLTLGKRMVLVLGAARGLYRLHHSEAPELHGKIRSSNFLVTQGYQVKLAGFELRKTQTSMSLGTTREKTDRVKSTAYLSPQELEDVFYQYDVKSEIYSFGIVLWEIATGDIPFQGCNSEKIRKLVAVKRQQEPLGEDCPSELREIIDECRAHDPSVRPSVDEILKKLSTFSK
Sequence of CaMK1a (Q14012 whole entry): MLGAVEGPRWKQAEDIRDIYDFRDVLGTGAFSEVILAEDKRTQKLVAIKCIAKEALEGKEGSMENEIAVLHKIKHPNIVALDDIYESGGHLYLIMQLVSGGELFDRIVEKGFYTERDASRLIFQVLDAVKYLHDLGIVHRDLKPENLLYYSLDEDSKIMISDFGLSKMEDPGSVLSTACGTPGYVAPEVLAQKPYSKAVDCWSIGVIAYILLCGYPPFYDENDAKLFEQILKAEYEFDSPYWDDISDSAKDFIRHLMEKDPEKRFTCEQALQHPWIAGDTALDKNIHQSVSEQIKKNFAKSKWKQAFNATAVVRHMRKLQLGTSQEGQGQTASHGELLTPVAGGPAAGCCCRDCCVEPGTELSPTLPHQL
Sequence of CDC2 (P06493 whole entry): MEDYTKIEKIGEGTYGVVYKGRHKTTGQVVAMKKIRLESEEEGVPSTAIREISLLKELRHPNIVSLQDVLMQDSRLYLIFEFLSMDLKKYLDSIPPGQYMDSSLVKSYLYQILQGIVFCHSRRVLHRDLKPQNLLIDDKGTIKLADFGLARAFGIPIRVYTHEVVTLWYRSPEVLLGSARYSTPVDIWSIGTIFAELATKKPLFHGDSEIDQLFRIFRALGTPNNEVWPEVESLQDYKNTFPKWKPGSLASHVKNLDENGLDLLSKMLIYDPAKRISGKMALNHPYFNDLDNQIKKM

`N#Cc1cccc(-c2c[nH]c3ncnc(N4CCOCC4)c23)c1` [Example 4, 3-[4-(Morpholin-4-yl)-7H-pyrrolo[2,3-d]pyrimidin-5-yl]benzonitrile] showed an inhibition at 0.1 µM [1] of -15.4%, an inhibition at 1 µM [1] of 1.2% and an inhibition at 0.1 µM [2] of -9.2%. It also gave an inhibition at 1 µM [2] of 1.9%, a percent inhibition ([3]; 0.1 μM) of −5.4% and a percent inhibition ([3]; 1 μM) of 24.7%. For the same compound, the inhibition at 0.1 µM [4, 35] was 3.1%, the inhibition at 1 µM [4, 35] was 58.4% and the inhibition at 0.1 µM [4, 36] was 9.3%. For the same compound, the inhibition at 1 µM [4, 36] was 54.3%, the inhibition at 0.1 µM [5] was -2.4% and the inhibition at 1 µM [5] was 13.6%. It also gave an inhibition at 0.1 µM [6] of -2.1%, an inhibition at 1 µM [6] of 16.4% and a percent inhibition ([7]; 0.1 μM) of −1.9%. The percent inhibition ([7]; 1 μM) was −1.3%, the inhibition at 0.1 µM [8] was -8.8% and the inhibition at 1 µM [8] was -6.3%. For the same compound, the inhibition at 0.1 µM [9] was -2.5%, the inhibition at 1 µM [9] was 13% and the inhibition at 0.1 µM [10] was -10.1%. For the same compound, the inhibition at 1 µM [10] was 14.5%, the inhibition at 0.1 µM [11] was 2.6% and the inhibition at 1 µM [11] was 0.8%. The percent inhibition ([12]; 0.1 μM) was −3.2%, the percent inhibition ([12]; 1 μM) was 14.8% and the pIC50 [13] was 8.52. For the same compound, the inhibition at 0.1 µM [14] was -9.3%, the inhibition at 1 µM [14] was 5% and the percent inhibition ([15]; 0.1 μM) was −6.5%. For the same compound, the percent inhibition ([15]; 1 μM) was 5.9%, the percent inhibition ([16]; 0.1 μM) was −4.5% and the percent inhibition ([16]; 1 μM) was 32.5%. The inhibition at 0.1 µM [17] was -12.5%, the inhibition at 1 µM [17] was 6.2% and the inhibition at 0.1 µM [18] was 1.1%. For the same compound, the inhibition at 1 µM [18] was -1.8%, the percent inhibition ([19]; 0.1 μM) was −12.4% and the percent inhibition ([19]; 1 μM) was 10.7%. It also gave an inhibition at 0.1 µM [20] of -10.8%, an inhibition at 1 µM [20] of 1.7% and an inhibition at 0.1 µM [21] of -6.7%. It also gave an inhibition at 1 µM [21] of 12.9%, an inhibition at 0.1 µM [22] of 0.8% and an inhibition at 1 µM [22] of 7.7%. The percent inhibition ([23]; 0.1 μM) was −6.7%, the percent inhibition ([23]; 1 μM) was 18.8% and the inhibition at 0.1 µM [24] was -12.1%. For the same compound, the inhibition at 1 µM [24] was -6.6%, the inhibition at 0.1 µM [25] was -15.5% and the inhibition at 1 µM [25] was -15.8%. The inhibition at 0.1 µM [26] was 0.5%, the inhibition at 1 µM [26] was -2.5% and the inhibition at 0.1 µM [27] was 0.7%. For the same compound, the inhibition at 1 µM [27] was 16.4%, the inhibition at 0.1 µM [28] was -2.6% and the inhibition at 1 µM [28] was 23.7%. For the same compound, the inhibition at 0.1 µM [29] was -5.4%, the inhibition at 1 µM [29] was 0.8% and the inhibition at 0.1 µM [30] was -1.5%. It also gave an inhibition at 1 µM [30] of 5.7%, an inhibition at 0.1 µM [31] of -7% and an inhibition at 1 µM [31] of 7.4%. For the same compound, the inhibition at 0.1 µM [32] was -11.2%, the inhibition at 1 µM [32] was 21.6% and the inhibition at 0.1 µM [33] was -16%. It also gave an inhibition at 1 µM [33] of 1.8%, an inhibition at 0.1 µM [34] of -2.9% and an inhibition at 1 µM [34] of 2.1%.
